Assays:
[1] = Fluorescence microscopy of skin distribution after microinjection into hairless rat skin; type: in vivo
Description: FIG. 17A-B are micrographs showing hairless rat skin microinjected in vivo with FITC-insulin. Histological sections are shown using brightfield microscopy with H&E staining (FIG. 17A) and fluorescence microscopy showing injection and distribution of insulin in the skin (FIG. 17B). Scale bar=100 μm. Single, hollow, glass microneedles were inserted into the back skin of anesthetized rats placed in a prone position or into human cadaver skin (2×2 cm^2) placed on a x-y stage. Compounds delivered included blue tissue-marking dye in PBS (20% v/v, Shandon, Pittsburg, Pa.), green-fluorescent calcein in PBS (10 μM-10 mM, Molecular Probes, Eugene, Oreg.). After microinfusion experiments, skin samples were preserved as described in Example 1. Histological sections of skin were examined by stereoscopic (SZX12, Olympus, Melville, N.Y.) and fluorescence microscopy (IX 70, Olympus). Images were recorded by a digital camera (Spot RT Slider camera, Model 231, Diagnostic Instruments, Sterling Heights, Mich.) and analyzed using image analysis software (Image Pro Plus, version 4.5, Media Cybernetics, Silver Spring, Md.). The volume of injected liquid was imaged in the skin for quantitative analysis using one of three different methods. […] During insulin delivery experiments, rats were anesthetized. […]

[2] = Effect of hyaluronidase on microneedle infusion flow rate into human cadaver skin in vitro; conditions: 200 U/ml hyaluronidase in sulforhodamine solution vs without; bevel-tip microneedle inserted 1080 μm; 138 kPa; ANOVA p≦0.01
Protocol: To measure flow rate into skin during microneedle infusion, a single microneedle was inserted into human cadaver skin to microinfuse sulforhodamine solution and the infusion flow rate was measured over time. As an aid to visualizing flow into skin, sulforhodamine-B dye (Molecular Probes, Eugene, Oreg.) was added to PBS, stirred, and filtered (0.2 μm pore size, Nalge Nunc International, Rochester, N.Y.) to make 1×10^−3 M sulforhodamine solution. […]
The flow rate of sulforhodamine solution microinjection was determined by following movement of the gas-liquid meniscus in the syringe reservoir over time with a digital video camera (DCR-TRV460, Sony, Tokyo, Japan) and image analysis software (Adobe Photoshop 7.0, Adobe Systems, San Jose, Calif.) after converting the captured movie into sequences of still images (Adobe Premiere 6.0, Adobe Systems). […]
The effect of hyaluronidase was determined by comparing to an infusion fluid containing 200 U/ml hyaluronidase prepared by mixing 3 ml of hyaluronidase solution (Vitrase™, 200 U/ml, ISTA Pharmaceuticals, Irvine, Calif.) with 7 mL of 1×10^−3 M sulforhodamine solution. […] Microinfusion flow rate was measured as a function of retraction distance during infusion in the absence (white bars) or presence (black bars) of hyaluronidase. Data are expressed as mean values (n≧3) with standard deviation bars. […]

diabetic hairless rats = test: Blood glucose in diabetic hairless rats after insulin microinfusion through a hollow microneedle; type: in vivo, rat
Protocol: During insulin delivery experiments, rats were anesthetized. Microneedle infusion was carried out as described in Example 4, using clinical insulin solution (100 U/ml, Humulin R, Eli Lilly, Indianapolis, Ind.), and FITC-labeled insulin in PBS (1 mg/ml, Sigma).
As a companion experiment, insulin was microinjected into the skin of diabetic hairless rats in vivo and blood glucose concentration was monitored over time. Microinjection was carried out via microneedle insertion to a depth of 500-800 μm and infusing for 30 min. The volume of insulin solution microinjected into diabetic rat skin was 5±1 μl over the 30-min infusion period. Over a 4.5-h monitoring period after infusion, blood glucose level dropped and then plateaued at approximately 25% below pre-treatment values. […] Data expressed as mean±SEM.
Recognizing that needle retraction can increase microinfusion, the insulin delivery experiment was repeated by inserting microneedles to the same initial depth in the skin and then retracting by 150-200 μm back toward the skin surface. […] The volume of insulin solution microinjected into diabetic rat skin after needle retraction was 29±12 μl over the 30-min infusion period. […]

In the case of `O=C(O)CN(CC(=O)O)Cc1cc2c(cc1O)Oc1cc(O)c(CN(CC(=O)O)CC(=O)O)cc1C21OC(=O)c2ccccc21` [calcein], the “distribution in skin after microinjection (fluorescence)” value ([1]; injection at a specific location within the dermis, histological sections) is reported as “fluoresced more uniformly in both dermis and epidermis”.
With hyaluronidase the “increase in infusion flow rate” value [2] was 7 fold.
For “fluorescently labeled insulin: FITC-labeled insulin in PBS (1 mg/ml, Sigma)”, the “distribution in skin after microinjection (fluorescence)” value ([1]; rat, in vivo) was “distribute throughout the dermis”.
For insulin, the “blood glucose level drop below pre-treatment values” (diabetic hairless rats; microneedle inserted 500-800 μm, no retraction, 30-min infusion of 100 U/ml insulin solution (5±1 μl injected), 4.5-h monitoring after infusion, plateau) was “approximately 25%” and the “blood glucose level drop below pre-treatment values” (diabetic hairless rats; microneedle inserted to same depth then retracted 150-200 μm, 30-min infusion of 100 U/ml insulin solution (29±12 μl injected)) was “approximately 70%”.
